Values of other authors in US20150209310A1, “NACA FOR THE TREATMENT OF CHRONIC OR LOW IMPACT BRAIN TRAUMA” (Brighton Biotech, Inc., priority 2014, published 2015).

Details: background statement

For `CC(=O)N[C@@H](CS)C(=O)O` [NAC, N-acetyl-L-cysteine], the “crossing of the blood-brain barrier” value is given as “inability to cross the blood-brain barrier”.
